Data published in ChEMBL document CHEMBL2029278 (Bioorg Med Chem Lett, 2012).
Calls of active or inactive are those of the source. The calls are words filed in the database; no cut-off is given here.

Columns and labels:
[1] = molecular target: T1, Neuraminidase (Influenza A virus, UniProt B4URF0); assay: Inhibition of Influenza A virus H9N2 neuraminidase using 4-MU-NANA as substrate by fluorescence assay
[2] = molecular target: T1, Neuraminidase; assay: Inhibition of Influenza A virus H1N1 neuraminidase using 4-MU-NANA as substrate by fluorescence assay
[3] = molecular target: T1, Neuraminidase; assay: Inhibition of wild type H1N1 swine influenza virus neuraminidase using 4-MU-NANA as substrate by fluorescence assay
[4] = system: Influenza A virus; assay: Antiviral activity against Influenza A virus PR/8/34 H1N1 infected in dog MDCK cells assessed as reduction in virus-induced cytopathic effect at 5 ug/mL; type: functional, organism-based; conditions: A/Puerto Rico/8/1934(H1N1)

T1 sequence (B4URF0 whole entry): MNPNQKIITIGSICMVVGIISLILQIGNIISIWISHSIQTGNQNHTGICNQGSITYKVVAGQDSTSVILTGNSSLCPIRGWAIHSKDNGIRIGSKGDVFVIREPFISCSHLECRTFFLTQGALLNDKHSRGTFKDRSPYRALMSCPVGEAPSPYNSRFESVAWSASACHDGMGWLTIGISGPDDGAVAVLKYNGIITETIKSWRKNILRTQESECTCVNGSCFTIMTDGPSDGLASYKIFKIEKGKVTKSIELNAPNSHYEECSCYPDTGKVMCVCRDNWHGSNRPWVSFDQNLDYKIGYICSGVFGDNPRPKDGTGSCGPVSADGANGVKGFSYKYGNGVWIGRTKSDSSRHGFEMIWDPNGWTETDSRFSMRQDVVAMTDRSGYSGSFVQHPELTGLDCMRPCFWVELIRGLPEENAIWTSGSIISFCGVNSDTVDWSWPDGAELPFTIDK

Row | Structure (SMILES) | IC50 [1] [µM] | IC50 [2] [µM] | IC50 [3] [µM] | Activity [4]
1 | COc1c(O)cc2oc3cc(O)ccc3c(=O)c2c1OC | > 347 | > 347 | – | –
2 | O=c1c2cccc(O)c2oc2cc(O)c(O)c(O)c12 | 76.1 | 103 | 52.6 | Active
3 | COc1cc(O)c2oc3ccccc3c(=O)c2c1OC | > 367 | > 367 | – | –
4 | COc1c(O)cc2c(=O)c3ccccc3oc2c1OC | > 367 | > 367 | – | –
5 | O=c1c2cc(O)ccc2oc2cc(O)cc(O)c12 | 101 | 110 | 54.9 | Active
6 | O=c1c2cc(O)ccc2oc2cccc(O)c12 | 98.4 | 103 | 50.6 | Active
7 | COc1cccc2oc3ccc(O)cc3c(=O)c12 | > 413 | > 413 | – | –
8 | O=c1c2ccccc2oc2cc(O)cc(O)c12 | 67.7 | 102 | 48.9 | Active
9 | COc1c2c(cc3c(=O)c4ccccc4oc13)OCO2 | > 370 | > 370 | – | –
10 | COc1ccc(O)c2c(=O)c3cc(O)ccc3oc12 | 99.1 | 110 | 36.1 | Active
